From ChEMBL document CHEMBL3886864, “Heterocyclic resorcinol derivatives, preparation of same and cosmetic uses thereof” (2016) come the findings set out here.

As usually defined, the IC50 is the point on the concentration scale where inhibition reaches its midpoint.

Structures are written as SMILES.

For the test, the target named is T1, Polyphenol oxidase 1 (Agaricus bisporus, UniProt Q00024).
T1 sequence (Q00024 whole entry): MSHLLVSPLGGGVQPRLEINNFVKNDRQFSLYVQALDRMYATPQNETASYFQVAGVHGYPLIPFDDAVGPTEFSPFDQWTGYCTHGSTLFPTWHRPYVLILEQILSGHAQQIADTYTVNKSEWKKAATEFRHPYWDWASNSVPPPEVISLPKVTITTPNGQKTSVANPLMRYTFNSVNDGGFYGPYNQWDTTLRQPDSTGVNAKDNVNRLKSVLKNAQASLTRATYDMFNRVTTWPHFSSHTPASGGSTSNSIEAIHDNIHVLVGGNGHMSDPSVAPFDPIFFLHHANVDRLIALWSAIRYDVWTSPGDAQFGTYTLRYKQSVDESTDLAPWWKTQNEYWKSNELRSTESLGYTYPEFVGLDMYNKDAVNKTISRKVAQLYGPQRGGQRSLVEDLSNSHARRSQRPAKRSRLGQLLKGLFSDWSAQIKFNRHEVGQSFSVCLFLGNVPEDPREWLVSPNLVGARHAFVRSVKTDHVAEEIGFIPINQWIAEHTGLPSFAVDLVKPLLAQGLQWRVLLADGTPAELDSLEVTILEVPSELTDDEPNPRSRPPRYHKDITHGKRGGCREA
The experiment in a line: Inhibition Assay: Reader: Synergy HT program: tyrosinase 280-490 kinetics: kinetics over 45 minutes, reading at t=10 minutes, Tests in transparent 96-well plates, Phosphate buffer (pH 6.8), Enzyme: mushroom tyrosinase (T-3824, Sigma), Substrate: L-tyrosine (T-3754, Sigma), Positive control: Kojic acid (KA) (60890, Fluka) (reference inhibitor). Reference Molecules for the Test: Kojic acid: ….
`CC(c1cccnc1)c1ccc(O)cc1O` (stereo unspecified): the half-inhibitory concentration (IC50) amounted to 0.2 µM.

For `CC(c1nccs1)c1ccc(O)cc1O` (stereo unspecified), the IC50 was 1.5 µM.

Take `CCCCc1ccc(O)cc1O` [RUCINOL]: the IC50 turned out to be 1 µM.

For `CC(c1ccccn1)c1ccc(O)cc1O` (stereo unspecified), the IC50 is 0.4 µM.

As to `CC(c1cccs1)c1ccc(O)cc1O` (stereo unspecified), the half-inhibitory concentration (IC50) came out at 0.09 µM.

With `CC(c1ccsc1)c1ccc(O)cc1O` (stereo unspecified), the IC50 is 0.08 µM.
